Measured values from patent US20220033448A1, “METHODS FOR AGGREGATION OF PROTEINS” (priority 2011, published 2022).
Read-outs that look alike come from different tables or passages of the source. No end group written: not given here.

What was measured:
S. capitis = experiment: MIC, microbroth dilution; conditions: planktonic, 18 hours
Procedure: (§1) Bacteria were grown in a shaking incubator at 37° C. and 160rpm in 50 ml BHI , using individual colonies retrieved from a fresh overnight TSA-sheep blood plate. The cultures were grown to a density of approximately 1×10^8cells/ml and then diluted to 5×10^5 cells/ml in CAMHB (Mc Farland 0.5). Each well contained 100p.I (50p.I of peptide containing MHB plus 50 μl inoculum). The final cell density was 1×10^5 to 5×10^5/ml. After addition of the cell suspension, plates were incubated at 37° C. for 18 to 24 hours. The optical density at 590 nm (OD590) of each well was measured after 5 seconds of shaking the plate using Perkin Elmer spectrophotometer (1420 Multilabel Counter Vicotr 3). […] Each well, where no growth was observed, was also plated on TSA-sheep blood agar plates, incubated at 37° C. overnight and visually inspected.

[1] = tested on: Human embryonic kidney (HEK293T) cells; conditions: 50 μg/ml (C30: 50 μg/ml or beyond)
[2] = tested on: negative regulator of genetic competence CIpC/mecB; experiment: SOSPA shotgun proteomic analysis of soluble / insoluble fractions; type: cell-based, S.aureus and B.cereus; conditions: C30 treated vs untreated cells
From the text: The aggregation technology is based on the assumption that short amino acid stretches, with a high propensity of aggregation (e.g. assessed by the TANGO score) and that are derived from a target protein, can induce aggregation of that protein. This hypothesis has been confirmed by a shotgun proteomic analysis of the insoluble fraction. If we assume that our aggregator peptides work through specific interaction with its target and causes its aggregation, it is expected that the target enters the insoluble fraction. For this reason we've decided to split the lysate into 2 fractions: insoluble and soluble and compare these with untreated cell fractions. Proteins present in both treated (TC30) and untreated (NT) insoluble fractions were assumed to present a background of non-specific naturally non-soluble proteins. Additionally we've examined soluble fractions of both treated and untreated bacteria and as expected the protein of interest was present only in the untreated fraction. This means that the following criteria for target search were used:
1) potential aggregation targets are proteins obtained from the list of proteins in the Insoluble fraction of C30 treated cells minus proteins in the Insoluble fraction of non-treated cells […]

[3] = tested on: human embryonic kidney cells (HEK293T cell line); conditions: concentrations lower than 100 μg/ml; HEK293T
From the text: Alamar blue assay allowed monitoring of the total percentage of cell growth recovery in time in the presence of peptides.

[4] = Preliminary in vivo toxicity in mice; conditions: Swiss mice
Procedure: Further, three groups of 6-weeks old female Swiss mice were injected with increasing C30 doses over a period of 1 week. C30 was dissolved in physiological water and 1 injection per day was given. In the first 3 days injections in the tail vein were given (150 μl per injection) and during the remaining 2 days IP injections (300 μl per injection). The primary dose started from 3 mg/kg and each day the dose was increased gradually. The control group received the same volume of saline. The highest dose analyzed for IV injections was 50 mg/kg and for the IP injections 100 mg/kg. […] Organs of treated and control mice were subjected to further histological analysis. After all 5 injections were given, blood was taken by retro-orbital puncture and analyzed.

[5] = tested on: S. epidermidis strain ATCC 12228 and S. aureus ATCC; type: cell-based, Staphylococcus
Procedure: Time-kill curves were obtained to study the kinetics of bactericidal activity. Compounds C30, Hit50 and C29 (for sequences see above) were tested against S. epidermidis strain ATCC 12228 and S. aureus ATCC at the compound's MIC and two times MIC value. It was shown that compound C30 decreased the viable counts by 100% within 5 min, while Hit50 reduced the viable counts by ^˜3 log units after the same incubation period, both at a concentration that equaled its MIC value (see FIG. 11A and FIG. 11B). […] For example the time needed to decrease the number of CFU/ml one-fold for C29 was 60 minutes (at the minimum inhibitory concentration), and only 10 minutes for 2×MIC.

B. cereus = conditions: planktonic, 18 hours
Procedure: as §1
(§2) A microbroth dilution method was used with twofold serial dilutions in CAMHB (according to EMEA guidelines) was used for screening of peptide activity, with concentrations ranging from 0.3 μg/mIto 200 μg/ml.

S. epidermidis = conditions: planktonic, 18 hours
Procedure: as §1, §2

human erythrocytes = type: cell-based
From the text: The detergent Tween was used as a positive control, causing 100% lysis of RBCs.

Bacillus subtilis = experiment: MIC, microbroth dilution; conditions: planktonic, 18 hours
Procedure: as §1

[6] = tested on: Listeria monocytogenes ATCC 11994; experiment: MIC, microbroth dilution; conditions: planktonic, 18 hours
Procedure: as §1

[7] = tested on: Candida glabrata ATCC2001; experiment: C. glabrata adhesion and biofilm formation on 96-well polystyrene plates (XTT); type: cell-based; conditions: 96-well polystyrene plates in vitro
From the text: The specificity of interferor peptide F9 was investigated for C. albicans as compared to a distant Candida spp., i.e. Candida glabrata ATCC2001, for biofilm formation inhibition in vitro. The beta-aggregation sequence of the F9 peptide ([…] (SEQ ID NO: 71)) is not present in C. glabrata—the most closely related sequence in C. glabrata is […] (SEQ ID NO: 73). […] We tested the effect of F9 against C. glabrata adhesion and biofilm formation on 96-well polystyrene plates in vitro.

Procedure for Corynebacterium: as §1, §2

## RILLGLIRRGSRILLGLIRR [C30]
S. capitis
  MIC: S. capitis: 1.5 μg/ml
[1]
  LDH release: higher than 50%
Corynebacterium
  activity against the genus Corynebacterium: active against the genus Corynebacterium
[2]
  distribution of the target protein between soluble and insoluble fraction: shifted from soluble into insoluble fraction upon peptide treatment
[3]
  viability of mammalian cells: viability of mammalian cells is not significantly affected
MRSA strain 326; 31 days, concentration in medium adjusted to MIC of previous day
  maximal increase of the MIC: ≤ 4 fold
MRSA strain 326; day 31
  MIC on the last day of the experiment: 12,5 μg/ml
S. aureus
  MIC: 6 µg/mL
  MIC in presence of 50% FBS: 50 µg/mL
S. aureus; MRSA 115, planktonic, 18 hours
  MIC: MRSA 115: 6 μg/ml
S. aureus; MRSA 165, planktonic, 18 hours
  MIC: MRSA 165: 3 μg/ml
S. aureus; MRSA 204, planktonic, 18 hours
  MIC: MRSA 204: 6 μg/ml
S. aureus; MRSA 274, planktonic, 18 hours
  MIC: MRSA 274: 3 μg/ml
S. aureus; MRSA 351, planktonic, 18 hours
  MIC: MRSA 351: 3 μg/ml
S. aureus; MRSA 418, planktonic, 18 hours
  MIC: MRSA 418: 6 μg/ml
S. aureus; MRSA 651, planktonic, 18 hours
  MIC: MRSA 651: 3 μg/ml
S. aureus; S. aureus ATCC29213, planktonic, 18 hours
  MIC: S. aureus ATCC29213: 3 μg/ml
[4]; IP injection, highest dose of 100 mg/kg
  side effects: developed a subcutaneous lesion bump
[4]; IV injections, increasing doses from 3 mg/kg, highest dose 50 mg/kg
  mortality and side effects: no signs of mortality nor any other visible side effects
[4]; after all 5 injections, retro-orbital puncture
  blood analysis: No abnormalities were found in the blood
[5]
  time needed to kill Staphylococci: 5 to 10 min
[5]; Staphylococcus epidermidis and Staphylococcus aureus, 5 min, 1 ×MIC
  decrease of viable counts: 100%
B. cereus; Bacillus cereus 1
  MIC: Bacillus cereus 1: 6 μg/ml
B. cereus; Bacillus cereus 2
  MIC: Bacillus cereus 2: 6 μg/ml
S. epidermidis; S101
  MIC: S101: 1.5 μg/ml
S. epidermidis; S103
  MIC: S103: 1.5 μg/ml
S. epidermidis; S104
  MIC: S104: 1.5 μg/ml
S. epidermidis; S109
  MIC: S109: 3 μg/ml
S. epidermidis; S. epidermidis ATCC 13228
  MIC: S. epidermidis ATCC 13228: 1.5 μg/ml
Human erythrocytes
  HD50 (concentration at which 50% of red blood cells are lysed): 25 to 50 µg/mL
Bacillus subtilis; Bacillus subtilis ATCC 6051
  MIC: Bacillus subtilis ATCC 6051: 1.5 μg/ml
Bacillus subtilis; Bacillus subtilis IP 5832
  MIC: Bacillus subtilis IP 5832: 6 μg/ml
[6]
  MIC: Listeria monocytogenes ATCC 11994: 1.5 μg/ml

## RKLLFNLGSRNGIVIVATTR [F9]
[7]
  C. glabrata adhesion and biofilm development: did not interfere with C. glabrata adhesion and biofilm development
